What all share (format): cell-based
Experiment [1] deals with T1, ΔF508 CFTR (Homo sapiens, UniProt P13569, DEL508-508). Kind of experiment: Corrector activity, YFP halide (iodide) quenching assay in FRT cells expressing ΔF508 CFTR. Further details: expressed in transfected cells; host or cells: Fischer rat thyroid (FRT) cells. Particulars: 24 hours with compound at 37° C., forskolin and genistein. The procedure, abridged:
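FRT cells co-expressing ΔF508 CFTR and halide-sensitive YFP were incubated 24 h at 37° C with compounds, then stimulated 30 min at 37° C in PBS with forskolin and genistein. Endpoint fluorescence after iodide injection was normalized to initial reading; EC50 from 4-parameter fit with bottom constrained to DMSO control.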

The target of experiment [2] is T1, ΔF508 CFTR. Nature of the experiment: Potentiator activity, YFP halide (iodide) quenching assay in FRT cells expressing ΔF508 CFTR, 27° C. pre-incubation. Further details: expressed in transfected cells; host or cells: Fischer rat thyroid (FRT) cells. Particulars: FRT cells ΔF508 CFTR/YFP, 24 hours at 27° C., compound with forskolin 30 min. The procedure, abridged: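 FRT cells stably co-expressing ΔF508 CFTR and halide-sensitive YFP, grown 24 h at 37° C. then 24 h at 27° C. to raise surface CFTR. Compounds in PBS with forskolin, 30 min at 37° C.; iodide injected and YFP quenching (ex 485/em 530 nm) followed. EC50 from normalized endpoint fluorescence.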

Experiment [3] has as its system ypt1^ts cells. Nature of the experiment: Rescue of growth of ypt1^ts mutant yeast (OD600). Particulars: Saccharomyces cerevisiae, read-out: Ypt1-ts MRC (Minimum Rescue Concentration), ypt1^ts cells, 35° C. and 37° C., OD600; multiple results separated by a comma. An excerpt:
The activity of the compounds as modulators of protein trafficking may be measured in the assays described herein that evaluate the ability of a compound to rescue an impairment in protein trafficking. For example, the yeast mutant cell line ypt1^ts can be used to identify compounds that rescue cells from the lethal phenotype of a mutant YPT1 allele (see, e.g., Examples and Schmitt et al. (1988) Cell 53:635-47). The activity may be measured, for example, in a whole yeast cell assay using 384-well screening protocol and an optical density measurement.
The yeast mutant cell line ypt1^ts suppresses, in a temperature dependent fashion, the dominant-lethal phenotype of a mutant YPT1 allele (Schmitt et al. (1988) Cell 53:635-47). The yeast mutant cell line ypt1^ts contains an allele of YPT1 that has two point mutations: one that changes an asparagine at position 121 to a isoleucine (N121I) and another that changes an alanine at position 161 to a valine (A161V). The N121I mutation causes dominant lethality by itself, but lethality is suppressed by the second mutation, resulting in a recessive loss of function phenotype at the restrictive temperatures. ypt1^ts cells grow normally at temperatures up to 25° C., but are growth arrested at 37° C. (Id.).
Compounds were screened to assess their ability to restore growth of ypt1^ts cells. The effect of the compounds was measured on ypt1^ts cells cultured at room temperature (permissive temperature), 37° C. (non-permissive temperature), and 35° C. (semi-permissive temperature).
To determine if the test compounds could rescue the ypt1^ts mutant phenotype, ypt1^ts cells were grown overnight in synthetic complete (SC) media supplemented with 2% glucose at room temperature. Log phase cells were diluted into SC 2% glucose media to an OD600 of 0.003. 100 μL of this culture was then aliquoted into each well of 96-well flat bottom microtiter plates. 1 μL of the test compounds dissolved in DMSO (at a concentration range from 5 mM-0.005 mM) or of DMSO alone was added to each well (50 μM-0.05 μM final concentration in 1% DMSO). Plates were mixed by vortexing and incubated at 35° C. and 37° C. Compound rescue of the ypt1^ts temperature sensitive defect was assessed by measuring the OD600 (optical density at 600 nm; cell growth) of the cultures. Plates incubated at 35° C. were measured at 24 and 40 hours incubation time while plates grown at 37° C. were measured after 40 hours of incubation.
Assays monitoring the rescue of ypt1^ts mutants were performed using a vehicle, a positive control (calcium), and the compounds identified in Table II. Results in Table II corresponding to an MRC (Minimum Rescue Concentration) for ypt1^ts of greater than or equal to 50 micromolar are labeled +; of an MRC for ypt1^ts of 10-50 micromolar are labeled ++; and of an MRC for ypt1^ts of less than 10 micromolar are labeled +++. Multiple results for a particular compound are separated by a comma.

Where [4] appears, read: FRT cells ΔF508 CFTR/YFP, read-out: Corrector EC50.
Setting [5] is: Corrector EC50, FRT cells ΔF508 CFTR/YFP.

By EC50 is commonly meant the concentration needed to bring the measured effect to its halfway point.

T1 sequence (P13569 with tags, fused parts or gaps DEL508-508): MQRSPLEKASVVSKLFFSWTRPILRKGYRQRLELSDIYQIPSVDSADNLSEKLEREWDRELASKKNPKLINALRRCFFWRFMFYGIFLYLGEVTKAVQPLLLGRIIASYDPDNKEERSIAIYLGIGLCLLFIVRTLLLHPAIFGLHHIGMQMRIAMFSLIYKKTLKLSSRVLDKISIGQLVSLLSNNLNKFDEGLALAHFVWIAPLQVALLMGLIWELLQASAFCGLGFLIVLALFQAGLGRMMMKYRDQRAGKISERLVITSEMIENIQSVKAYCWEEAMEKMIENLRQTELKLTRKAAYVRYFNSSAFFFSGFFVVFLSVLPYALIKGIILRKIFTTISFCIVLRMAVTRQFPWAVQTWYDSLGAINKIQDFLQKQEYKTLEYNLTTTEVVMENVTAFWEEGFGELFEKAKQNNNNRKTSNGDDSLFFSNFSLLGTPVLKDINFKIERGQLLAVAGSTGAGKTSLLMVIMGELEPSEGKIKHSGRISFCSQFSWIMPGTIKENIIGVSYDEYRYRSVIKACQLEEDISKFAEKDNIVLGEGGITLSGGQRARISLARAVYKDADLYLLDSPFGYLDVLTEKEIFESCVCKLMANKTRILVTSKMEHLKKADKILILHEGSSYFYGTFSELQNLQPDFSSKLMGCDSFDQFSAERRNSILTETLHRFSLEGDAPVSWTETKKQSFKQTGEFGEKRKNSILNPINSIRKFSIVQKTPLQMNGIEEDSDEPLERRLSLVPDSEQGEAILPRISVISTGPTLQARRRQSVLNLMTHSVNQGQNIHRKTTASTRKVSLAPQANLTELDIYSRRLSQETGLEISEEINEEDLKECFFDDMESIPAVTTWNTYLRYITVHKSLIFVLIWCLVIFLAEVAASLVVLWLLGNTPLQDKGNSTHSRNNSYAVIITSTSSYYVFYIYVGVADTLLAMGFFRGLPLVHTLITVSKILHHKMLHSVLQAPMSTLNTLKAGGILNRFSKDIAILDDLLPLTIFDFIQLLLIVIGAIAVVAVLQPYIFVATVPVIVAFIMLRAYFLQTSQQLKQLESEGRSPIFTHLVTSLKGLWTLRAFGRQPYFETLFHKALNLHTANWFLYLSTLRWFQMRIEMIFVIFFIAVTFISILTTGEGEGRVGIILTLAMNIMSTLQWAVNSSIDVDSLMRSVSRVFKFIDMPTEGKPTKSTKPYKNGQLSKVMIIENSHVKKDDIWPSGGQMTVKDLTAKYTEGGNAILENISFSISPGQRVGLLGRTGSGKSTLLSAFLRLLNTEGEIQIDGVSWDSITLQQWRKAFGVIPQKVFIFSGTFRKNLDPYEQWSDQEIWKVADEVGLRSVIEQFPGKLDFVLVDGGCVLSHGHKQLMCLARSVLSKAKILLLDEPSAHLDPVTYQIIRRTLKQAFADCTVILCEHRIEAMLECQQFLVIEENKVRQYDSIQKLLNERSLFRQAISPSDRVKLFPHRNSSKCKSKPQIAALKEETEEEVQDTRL

As to `CC(=O)Nc1ncnc2c1c(-c1ccc(Cl)cc1)nn2C(C)(C)C` [Compound No. 2, N-[1-tert-Butyl-3-(4-chloro-phenyl)-1H-pyrazolo[3,4-d]pyrimidin-4-yl]-acetamide], the EC50 in experiment [1] (setting [4]) is 5 to 10 µM; in experiment [2], < 2 µM. Further, the minimal effective concentration in experiment [3] is > 50 µM.

In the case of `Cn1nc(-c2ccc(Cl)cc2)c2c(N)ncnc21` [compound 1], the EC50 in experiment [1] (setting [4]) was > 15 µM. The minimal effective concentration in experiment [3] is > 50 µM.

With `Nc1ncnc2c1c(-c1ccc(Cl)cc1)nn2C1CCCCC1` [compound 3], the EC50 in experiment [1] (setting [4]) was > 15 µM. In experiment [3], the minimal effective concentration was > 50 µM.

As to `Nc1ncnc2c1c(-c1ccc(Cl)cc1)nn2-c1ccccc1` [compound 4], the EC50 in experiment [1] (setting [4]) is > 15 µM. Besides, the minimal effective concentration in experiment [3] is > 50 µM.

In the case of `CC(C)(C)n1nc(-c2cccc3ccccc23)c2c(N)ncnc21` [compound 6], the EC50 in experiment [1] (setting [5]) is > 15 µM. In experiment [3], the minimal effective concentration was in the range of 10 to 50 µM.

Take `CC(C)(C)n1nc(-c2ccccc2)c2c(N)ncnc21` [compound 8]: in experiment [1] (setting [4]), the EC50 was > 15 µM. In addition, the minimal effective concentration in experiment [3] is > 50 µM.

Take `CC(C)(C)n1nc(-c2cccc(Cl)c2)c2c(N)ncnc21` [compound 10]: the EC50 in experiment [1] (setting [4]) was > 15 µM; in experiment [2], < 2 µM. For the same molecule, in experiment [3], the minimal effective concentration was > 50 µM.

Regarding `CC(C)(C)n1nc(-c2cc3ccccc3s2)c2c(N)ncnc21` [compound 16, 3-Benzo[b]thiophen-2-yl-1-tert-butyl-1H-pyrazolo[3,4-d]pyrimidin-4-ylamine], in experiment [1] (setting [4]), the EC50 is > 15 µM. Moreover, the minimal effective concentration in experiment [3] is > 50 µM.

Take `Cc1ccc(-c2nn(C(C)(C)C)c3ncnc(N)c23)cc1` [compound 24]: in experiment [1] (setting [5]), the EC50 was in the range of 2 to 5 µM. Also, the minimal effective concentration in experiment [3] lay in the range of 10 to 50 µM.

Consider `CC(C)n1nc(-c2ccc(Cl)cc2)c2c(N)ncnc21` [compound 27], for which the EC50 in experiment [1] (setting [4]) was in the range of 2 to 5 µM. Moreover, the minimal effective concentration in experiment [3] was 10 to 50 µM.

With `Nc1ncnc2c1c(-c1ccc(Cl)cc1)nn2CC1CC1` [compound 29, 3-(4-Chloro-phenyl)-1-cyclopropylmethyl-1H-pyrazolo[3,4-d]pyrimidin-4-ylamine], in experiment [1] (setting [4]), the EC50 fell in the range of 5 to 10 µM. The minimal effective concentration in experiment [3] was < 10 µM.

Turning to `C#CCn1nc(-c2ccc(Cl)cc2)c2c(N)ncnc21` [compound 30], the EC50 in experiment [1] (setting [4]) was > 15 µM. In addition, the minimal effective concentration in experiment [3] is > 50 µM.

Take `CCn1nc(-c2ccc(Cl)cc2)c2c(N)ncnc21` [compound 31]: the EC50 in experiment [1] (setting [4]) is 5 to 10 µM; in experiment [2], > 15 µM. Also, the minimal effective concentration in experiment [3] is < 10 µM.

As to `C=CCn1nc(-c2ccc(Cl)cc2)c2c(N)ncnc21` [compound 32], the EC50 in experiment [1] (setting [4]) is > 15 µM. Besides, the minimal effective concentration in experiment [3] was > 50 µM.

`Nc1ncnc2c1c(-c1ccc(Cl)cc1)nn2C1CCC1` [compound 33]: the EC50 in experiment [1] (setting [4]) is 5 to 10 µM; in experiment [2] it was < 2 µM. Moreover, the minimal effective concentration in experiment [3] was 10 to 50 µM.

`Nc1ncnc2c1c(-c1ccc(Cl)cc1)nn2C1CCCC1` [compound 34]: in experiment [2], the EC50 is < 2 µM. For the same molecule, the minimal effective concentration in experiment [3] was 10 to 50 µM.

Regarding `CC(C)(C)n1nc(-c2ccc(F)cc2)c2c(NC(=O)c3ccccc3)ncnc21` [compound 40, N-[1-tert-Butyl-3-(4-fluoro-phenyl)-1H-pyrazolo[3,4-d]pyrimidin-4-yl]-benzamide], in experiment [1] (setting [4]), the EC50 was > 15 µM. In addition, the minimal effective concentration in experiment [3] was > 50 µM.

Consider `Cc1cc(-c2nn(C(C)(C)C)c3ncnc(N)c23)ccc1F` [compound 41], for which the EC50 in experiment [1] (setting [4]) is > 15 µM. Also, the minimal effective concentration in experiment [3] was > 50 µM.

Consider `CCn1cc(-c2ccc(C)cc2)c2c(N)cccc21` [compound 43, 1-Ethyl-3-p-tolyl-1H-indol-4-ylamine], for which the EC50 in experiment [1] (setting [4]) and in experiment [2] was > 15 µM in each case. In experiment [3], the minimal effective concentration was > 50 µM.

`CCn1nc(-c2ccc(C)cc2)c2c(N)cccc21` [compound 44, 1-Ethyl-3-p-tolyl-1H-indazol-4-ylamine]: the EC50 in experiment [1] (setting [4]) and in experiment [2] was > 15 µM in each case. In addition, in experiment [3], the minimal effective concentration was > 50 µM.

`COC(=O)c1cnc2c(c(-c3ccc(C)cc3)nn2C(C)(C)C)c1N` [compound 46]: the EC50 in experiment [1] (setting [4]) and in experiment [2] was > 15 µM each time. Besides, the minimal effective concentration in experiment [3] is > 50 µM.

As for `CNC(=O)c1cnc2c(c(-c3ccc(C)cc3)nn2C(C)(C)C)c1N` [compound 47], the EC50 in experiment [1] (setting [4]) and in experiment [2] was > 15 µM each time. For the same molecule, the minimal effective concentration in experiment [3] is > 50 µM.

In the case of `CCn1nc(-c2ccc(Cl)cc2)c2c(NC(C)=O)ncnc21` [compound 53], the EC50 in experiment [1] (setting [4]) was in the range of 5 to 10 µM. In addition, in experiment [3], the minimal effective concentration was > 50 µM.

`Nc1ncnc2c1c(Cc1cccc3ccccc13)nn2C1CCC1` [compound 74]: the EC50 in experiment [1] (setting [4]) was > 15 µM. The minimal effective concentration in experiment [3] is < 10 µM.

As to `Nc1ncnc2c1c(Cc1cccc3ccccc13)nn2C1CCCC1` [compound 77], in experiment [1] (setting [4]), the EC50 is > 15 µM. Also, the minimal effective concentration in experiment [3] is < 10 µM.

Take `CCn1nc2cccc(N)c2c1-c1ccc(C)cc1` [compound 80]: the EC50 in experiment [1] (setting [4]) and in experiment [2] was > 15 µM in each case. Moreover, the minimal effective concentration in experiment [3] was > 50 µM.

Turning to `CC(C)(C)n1nc(COCc2ccccc2)c2c(N)ncnc21` [compound 81, 3-benzyloxymethyl-1-tert-butyl-1H-pyrazolo[3,4-d]pyrimidin-4-ylamine], the minimal effective concentration in experiment [3] is > 50 µM.

`CC(C)(C)n1nc(C(O)c2ccccc2)c2c(N)ncnc21` (stereo not shown) [compound 82, (4-amino-1-tert-butyl-1H-pyrazolo[3,4-d]pyrimidin-3-yl)-phenyl-methanol]: the minimal effective concentration in experiment [3] is > 50 µM.

Turning to `CC(C)(C)n1nc(C(=O)c2ccccc2)c2c(N)ncnc21` [compound 83, (4-Amino-1-tert-butyl-1H-pyrazolo[3,4-d]pyrimidin-3-yl)-phenyl-methanone], the minimal effective concentration in experiment [3] was > 50 µM.

For the molecule `CC(C)(C)n1nc(C(=O)O)c2c(N)ncnc21` [compound 85, 4-Amino-1-tert-butyl-1H-pyrazolo[3,4-d]pyrimidine-3-carboxylic acid], in experiment [3], the minimal effective concentration is > 50 µM.

For `CN(C)c1cccc(C(O)c2nn(C(C)(C)C)c3ncnc(N)c23)c1` (stereo not shown) [compound 87], the minimal effective concentration in experiment [3] is > 50 µM.

On to `CC(C)(C)n1nc(CNc2ccccc2)c2c(N)ncnc21` [compound 88], for which, in experiment [3], the minimal effective concentration lay in the range of 10 to 50 µM.

For `CC(C)(C)n1nc(C(N)=O)c2c(N)ncnc21` [compound 89, 4-Amino-1-tert-butyl-1H-pyrazolo[3,4-d]pyrimidine-3-carboxylic acid amide], in experiment [3], the minimal effective concentration was > 50 µM.

For `CC(C)(C)n1nc(Cc2ccc(F)c3ccccc23)c2c(N)ncnc21` [compound 91], the minimal effective concentration in experiment [3] is < 10 µM.

With `CC(C)(C)n1nc(Cc2cccc3ccccc23)c2c(N)nc(C3CC3)nc21` [compound 92], the minimal effective concentration in experiment [3] is > 50 µM.

Values taken from patent US20100331297A1, “MODULATION OF PROTEIN TRAFFICKING” (FOLDRX PHARMACEUTICALS, INC., priority 2007, published 2010).
